Measurements published in patent US9499472B2, “Aspartylamide inhibitors of excitatory amino acid transporters” (priority 2012, dated 2016).
pIC50: −log10 of the molar value. Read-outs that look alike come from different tables or passages of the source.

Legend:
[1] = brain penetration and metabolism in live mice, LC/MS-MS of compound 6 in brain and plasma; type: in vivo, C57BL/6 mice; details: for levels of compound 6 (hydrolyzed compound 1) per gram brain tissue: mouse, 10 mg/Kg tail vein injection, all time points 1-90 min, ester vs acid administered
Experimental: A series of separate experiments were performed with compounds 1 or 6 in groups of C57BL/6 mice (6-8 weeks old; Charles River, Wilmington, Mass.) as a function of dose and time, where concentrations of compound 6 in brain and plasma (nanogram of compound 6/g of brain tissue or blood) were measured by liquid chromatography/mass spectrometry (LC/MS-MS) detection by literature methods (Chernet et al., Life Sci. 78:340-346 (2005)). In general, doses of compounds 1 and 6 were prepared at 1, 5 or 10 mg/Kg in a homogenous solution composed of 3% dimethyl sulfoxide and 97% […] pH 7.4. Doses (0.25 mL volume) were administered by tail vein injection to groups (n≧3) of mice. Mice were sacrificed at 1, 3 10, 30, 60, 90 and 100 minutes post-injection. For some groups of mice, brains were removed, weighed, homogenized (polytron, in SDS and water) extracted with acetonitrile and then centrifuged where the acetonitrile supernatant was collected. For other groups of mice, blood was collected ([…]), weighed, and then the samples were centrifuged where the supernatant plasma was collected and extracted with acetonitrile with and without 0.1% formic acid. To validate the extraction methods, other control (non-dosed) mice brains and plasma samples were spiked with various amounts (5-25,000 ng) of compound 6 and were processed in a similar fashion and then analyzed as described below. Respective acetonitrile extracts were diluted with methanol and 20 μL portions were then subjected to analytical reverse phase (C-18 analytical column, isocratic acetonitrile/water solvent) high performance liquid chromatography (HPLC), where the HPLC fractions were quantified using a mass spectrometer set to selectively monitor the mass-to-charge ratio of singly protonated compound 6 (C17H16FN2O3, exact mass: 315.11). In other analyses, a standard curve of compound 6 was constructed (5-25,000 nanogram mass range) and analyzed similarly. Quantities (nanograms, ng) of compound 6 from the dosed treated mouse brain and plasma samples were determined by correlation to the quantitative control spike method of detection (above) and also confirmed by interpolations against the compound 6 standard curve. Data was imported into Microsoft Excel and plotted as nanogram (ng) of detected hydrolyzed compound 1 (that is, compound 6/gram (g) brain tissue or plasma versus time (minutes). The data from the mouse experiments are shown in FIGS. 4 and 5.
Shown in FIG. 4 are the results from 10 mg/Kg administration of the ester compound 1 (shown as black bars) or the acid compound 6 (shown as grey bars) relative to the amounts of hydrolyzed compound 1 (that is, compound 6) per gram brain tissue at time points 1, 3, 10, 60 and 90 minutes post-injection. […]

[2] = target: T1, EAAT2 (Homo sapiens, UniProt P43004); test: [3H]D-aspartate uptake by EAAT2 transiently expressed in C17.2 cells; type: cell-based
T1 construct: expressed in transfected cells; host or cells: C17.2 cells, transient transfection with FuGENE6
T1 sequence (P43004 whole entry): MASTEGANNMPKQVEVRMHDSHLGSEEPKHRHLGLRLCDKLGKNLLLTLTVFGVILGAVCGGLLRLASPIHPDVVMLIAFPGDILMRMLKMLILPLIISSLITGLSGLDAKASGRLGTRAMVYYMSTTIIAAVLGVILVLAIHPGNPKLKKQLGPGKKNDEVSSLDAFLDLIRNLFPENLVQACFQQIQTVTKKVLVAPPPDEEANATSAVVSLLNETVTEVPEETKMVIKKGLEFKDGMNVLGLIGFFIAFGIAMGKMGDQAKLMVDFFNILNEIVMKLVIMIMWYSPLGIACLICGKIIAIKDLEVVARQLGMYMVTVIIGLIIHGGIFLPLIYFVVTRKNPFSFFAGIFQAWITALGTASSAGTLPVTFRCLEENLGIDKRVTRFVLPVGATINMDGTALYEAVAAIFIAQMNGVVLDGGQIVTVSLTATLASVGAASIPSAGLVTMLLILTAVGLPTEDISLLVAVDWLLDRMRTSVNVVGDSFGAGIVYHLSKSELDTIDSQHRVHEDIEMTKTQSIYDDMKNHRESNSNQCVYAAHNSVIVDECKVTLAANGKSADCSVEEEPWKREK
Experimental: The excitatory amino acid transporter 2 (EAAT2) was transiently expressed in C17.2 cells using an AAV-based vector pAM-CAG-EAAT3-WPRE as described in the literature (Esslinger). Cells between passages 10-20 were seeded at 5×10^4 cells/well in 12 well plates and grown in complete DMEM supplemented with 10% fetal bovine serum, 1 mM sodium pyruvate, 0.1 mM nonessential amino acids solution. At 24 hours after plating, cells were transfected using FuGENE6 Transfection Reagent (Roche, Indianapolis, Ind.) in a ratio of 4 μL of FuGENE6 to 3 μg of purified plasmid DNA in accordance with manufacturers instructions. The cells were used in the transport assays 24 hours following transfection as described by Esslinger. Briefly, transfected C17.2 cells were grown in DMEM containing 10% FCS in a humid atmosphere of 5% CO2. Near-confluent cells (plated at 5×10^4 cells/well) were rinsed with a physiological buffer (138 mM NaCl, 11 mM D-glucose, 5.3 mM KCl, 0.4 mM KH2PO4, 0.3 mM Na2HPO4, 1.1 mM CaCl2, 0.7 mM MgSO4, 10 mM HEPES, pH 7.4) and allowed to pre-incubate at 37° C. for 5 minutes.
Three types of binding experiments were performed: a) single concentrations of compounds 1 or 6 were added simultaneously to the cell assay with 1 μM ^3H-D-aspartate, b) six or more concentrations of compound 6 were added simultaneously to the cell assay with 1 μM ^3H-D-aspartate; and c) six or more concentrations of compound 6 were pre-incubated with cells for 25 minutes, after which 1 μM ^3H-D-aspartate was added to the cell to initiate the assay. […] The cells were dissolved in 0.4 N NaOH for 24 hours and analyzed for radioactivity by liquid scintillation counting and protein by the BCA (Pierce) method. For each type of uptake assay experiment, they were conducted with at least 2 cell-containing tissue culture wells, with duplicate samples from each well analyzed for radioactivity. […] Initial studies confirmed that uptake quantified in this manner was linear with time and protein levels and also that uptake in un-transfected C17.2 cells was indistinguishable from background. […]

[3] = test system: panel of central nervous system protein binding sites defined in FIG. 8; test: competitive radioligand binding panel of central nervous system protein binding sites (FIG. 8); parameters: key: No Activity: no greater than or equal to 50% inhibition of binding; details: 1 micromole assay concentration, duplicate
Experimental: In separate in vitro competitive pharmacological assays performed in duplicate, compounds 1 and 6 at 1 micromole concentrations were evaluated against the panel of central nervous system protein binding sites that are defined in FIG. 8. As noted in FIG. 8, the assays utilized specific established radioligands for the respective competition binding assays, and respective assay ligand standards that afforded respective pharmacological inhibition binding curves of half maximal inhibitory concentration (IC50) values. […] In other words, the concentrations of compounds 1 and 6 that would be required to inhibit the FIG. 8 radioligand bindings at their respective protein sites would have to be greater than 1 micromole concentration.

[4] = target: T2, EAAT2 (Rattus norvegicus, UniProt P31596); test: tracer PET brain imaging and quantitative EAAT2 detection in rat; type: in vivo, rat (Sprague-Dawley); details: 5 mg/Kg dose 10 minutes before tracer 2, all CNS ROIs, all times post-injection
T2 construct: from tissue; host or cells: live male Sprague-Dawley rat brain and spinal cord (in vivo PET)
T2 sequence (P31596 whole entry): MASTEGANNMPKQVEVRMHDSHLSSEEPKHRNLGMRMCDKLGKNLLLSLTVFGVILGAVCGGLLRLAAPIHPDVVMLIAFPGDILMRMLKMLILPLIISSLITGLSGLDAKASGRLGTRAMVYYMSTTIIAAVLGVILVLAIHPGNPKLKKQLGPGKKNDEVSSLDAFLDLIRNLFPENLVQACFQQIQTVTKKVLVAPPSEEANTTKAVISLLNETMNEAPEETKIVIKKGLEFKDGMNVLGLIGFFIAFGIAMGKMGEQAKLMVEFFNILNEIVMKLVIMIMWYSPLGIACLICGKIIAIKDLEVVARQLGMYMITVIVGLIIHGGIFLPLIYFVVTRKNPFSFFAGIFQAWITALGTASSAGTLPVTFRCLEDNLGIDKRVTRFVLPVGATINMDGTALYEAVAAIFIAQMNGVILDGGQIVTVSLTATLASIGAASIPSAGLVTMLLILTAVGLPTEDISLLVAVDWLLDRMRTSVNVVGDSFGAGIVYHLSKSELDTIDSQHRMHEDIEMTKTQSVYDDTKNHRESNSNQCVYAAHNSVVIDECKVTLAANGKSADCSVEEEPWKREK
Experimental: As an example of the tracer compound of the invention, rodent (rat) quantitative in vivo PET imaging trials are presented employing the tracer compound 2 of Example VI. The in vivo PET imaging was performed in parallel with magnetic resonance (MR) and computed axial tomography (CAT, CT) imaging methods, in which the latter two imaging methods afforded anatomical tissue information for co-registration to the acquired tracer quantitative PET data. […] Two rodent imaging trials (A-B) were performed employing two age-matched male Sprague-Dawley subjects. The age of the subjects were nearly identical to those described in the most recent rat (Sprague-Dawley, amongst others) stereotaxic brain atlas (Paxinos et al., “[…],” Academic Press: Burlington, Mass. (2007))
providing high confidence levels for identification and definition of explicit brain cerebral fine tissue structures as regions of interest (ROIs) for quantitative analysis, and as a function of three-dimensional (3D) co-registration of cerebral soft tissue identification by MR scan analysis and landmark anatomical features from CAT data.
The PET data were acquired with a Siemens Inveon microPET scanner (ca. 1.5 mm spatial resolution). Rodent subject tail vein tracer 2 injection volumes (Table 1) used the tracer 2 dose formulation described in Example VI. […]

Compound	levels of compound 6 (hydrolyzed compound 1) per gram brain tissue [1]	inhibition of 1 μM [3H]D-aspartate uptake by EAAT2 [2]	inhibition of binding of FIG. 8 radioligands at their protein binding sites [3]	reduction of tissue SUV signals of tracer 2 by pre-administration (challenge) [4]	amount of compound 6 detected in mouse brain, 5 mg/Kg versus 1 mg/Kg ([1]; mouse brain, 3, 10 and 100 minutes post-injection)	amount of compound 6 detected in plasma, 5 mg/Kg versus 1 mg/Kg ([1]; mouse plasma, 3 and 10 minutes post-injection)	pIC50 ([2]; IC50, EAAT2 interaction, first experimental in vitro conditions (single concentrations, simultaneous addition))	inhibition of 1 μM [3H]D-aspartate uptake by EAAT2 ([2]; concentrations up to 10 μM, added simultaneously with 3H-D-aspartate, 5 min)
N[C@@H](CC(=O)Nc1ccc2c(c1)Cc1cc(F)ccc1-2)C(=O)O [compound 6, (S)-2-Amino-4-(7-fluoro-9H-fluoren-2-ylamino)-4-oxo-butanoic acid]	lower levels	almost completely inhibited all uptake	No Activity					
COC(=O)[C@@H](N)CC(=O)Nc1ccc2c(c1)Cc1cc(F)ccc1-2 [compound 1, (S)-Methyl 2-amino-4-(7-fluoro-9H-fluoren-2-ylamino)-4-oxobutanoate]	higher levels		No Activity	2-3 fold	dose amount dependence	dose amount dependence	< 5.00	little or no inhibition
